Measured values published in PMC11475369, “Exploring the Potential of Synthetic Cannabinoids: Modulation of Biological Activity of Normal and Cancerous Human Colon Epithelial Cells” (Cells, 2024).
≈ marks a conversion by molar mass, not a printed value. Where “and” joins values, the source holds several entries; their conditions need not be identical. Identical values can stand only once.

Legend:
[1] = Ferric-reducing antioxidant power assay (FRAP)
Experimental: The antioxidant activity in the FRAP method determines the ability of the analyzed compounds to reduce iron ions. This allowed for the direct determination of the reducing capacity of the tested cannabinoids. The principle of the method was based on measuring the reduction in the tPtZ compound (iron-2,4,6-tripyridyl-S-[…] complex) under the influence of the cannabinoids. The following concentrations of the cannabinoids were prepared: 25, 100, and 200 μg/mL in Milli-Q water. […] The procedure was carried out as follows: each compound, at a concentration of 1 mL, was mixed with 1 mL of 0.2 M sodium phosphate buffer (pH 6.6) and 1 mL of 1% potassium ferricyanide. The mixture was vortexed and incubated for 30 min. at 37 °C. After the incubation, 1 mL of 10% trichloroacetic acid (w/v) was added to each sample, and the preparations were centrifuged at 1000 g for 5 min. Next, an equal volume of Milli-Q water and the upper layer of the samples (1 mL + 1 mL) were mixed with 100 μL of 0.1% ferric chloride and subjected to spectrophotometric reading at 700 nm using an EL800 Universal Microplate Reader (BioTek Instruments, Winooski, VT, USA). The higher the absorbance, the higher the iron ion-reducing activity of the tested cannabinoids is.

CCD 841 CoTr cells = assay: Neutral Red (NR) uptake assay, viability of CCD 841 CoTr cells; type: cell-based; conditions: Homo sapiens; CCD 841 CoTr colon normal cells, 24 h incubation
Experimental: (§1) The HT29 cell line (ATCC no. HTB-38) (human colon adenocarcinoma) was used in the present study. Cells were cultivated in RPMI 1640 culture medium with 10% fetal calf serum (FCS) (GibcoTM, Paisley, UK), supplemented with antibiotics (100 U/mL penicillin and 100 μg/mL streptomycin) (Sigma, St. Louis, MO, USA). The cell culture was performed in standard conditions, i.e., at 37 °C in a humidified atmosphere with 5% CO2. The CCD 841 CoTr cell line (ATCC no. CRL-1807) (human normal colon epithelium) was cultivated in RPMI 1640 +DMEM (1:1) medium (Sigma, St. Louis, MO, USA) with 10% FCS and the addition of antibiotics. The culture was carried out at 34 °C in a 5% CO2/95% air atmosphere.
After seeding (1 × 10^5 cells/mL) in a 96-well plate, the cells were incubated for 24 h. Thereafter, the tested compounds (100 μL) at a concentration range of 0–200 μg/mL in the culture medium were added to the wells (100 μL). The incubation lasted for 24 h. After that time, the culture medium was removed and a 0.4% Neutral Red solution in the culture medium was added to each well. The incubation was continued for another 3 h. After the incubation, the medium with the NR dye was discarded, and 4% paraformaldehyde in 1% CaCl2 was added for cell fixation (200 μL) and incubated for 3 min. Intracellular dye deposits were solubilized using 1% […] in a 50% ethanol solution (100 μL). The plates were then gently shaken (20 min.) at room temperature to dissolve and release the dye from the cells. Finally, spectrophotometric measurement was performed at 540 nm using an EL800 Universal Microplate Reader (BioTek Instruments, Winooski, VT, USA).

HT29 cells = assay: MTT assay, metabolic activity of HT29 cells; type: cell-based; conditions: Homo sapiens, HT-29; HT29 colon tumor cells, 24 h incubation; read-out: IC50 Values (MTT method)
Experimental: as §1
After seeding (1 × 10^5 cells/mL) in a 96-well plate, the cells were incubated for 24 h. Thereafter, the tested compounds (100 μL) at a concentration range of 0–200 μg/mL in the culture medium were added to the wells (100 μL). The incubation lasted for 24 h. After that time, an MTT solution (5 mg/mL, 25 μL/well) was added to each well. The incubation was continued for another 3 h. After the incubation, 10% sodium dodecyl sulfate (SDS) in 0.01 M HCl (100 μL) was added in order to dissolve the purple formazan crystals. Solubilization was carried out overnight. Finally, spectrophotometric measurement was performed at 570 nm using an EL800 Universal Microplate Reader (BioTek Instruments, Winooski, VT, USA).

[2] = DPPH free radical scavenging test
Experimental: The DPPH biochemical test is used to determine the antioxidant potential of tested compounds. This method is based on the ability of compounds to reduce the stable dark purple 2,2-diphenyl-1-picrylhydrazyl radical (DPPH) to yellow diphenyl-picrylhydrazine. The following concentrations of the tested cannabinoids were prepared: 25, 100, and 200 μg/mL in pure ethanol. Next, the DPPH solution (0.2 mg/mL in ethanol) was prepared. As a quantitative standard, Trolox in increasing concentrations (1–50 μg/mL) was prepared in ethanol. The procedure was carried out as follows: 100 µL of the specified concentrations of the tested cannabinoids or standard points were added to the wells of a 96-well plate in eight replicates. Next, 100 μL of a DPPH solution was added to 100 μL of each sample or standard in a 96-well plate. Subsequently, 20 min. incubation at room temperature was carried out, and spectrophotometric reading was performed at 515 nm using an EL800 Universal Microplate Reader (BioTek Instruments, Winooski, VT, USA). Decreasing absorbance meant increasing antioxidant activity of the preparations. The final value of the free radical scavenging activity of the cannabinoids was calculated based on the standard curve and the following formula:DPPH scavenging effect (%) = [(Xcontrol − Xcompound/Xcontrol) × 100]
Xcontrol is the absorbance of the control, and Xcompound is the absorbance in the presence of cannabinoids

[3] = cannabinoid concentration 25 μg/mL
[4] = cannabinoid concentration 100 μg/mL
[5] = cannabinoid concentration 200 μg/mL

Row | Structure (SMILES) | Reduction Value Corresponding to the Ascorbic Acid Concentration (FRAP) [1, 3] | Reduction Value Corresponding to the Ascorbic Acid Concentration (FRAP) [1, 4] | Reduction Value Corresponding to the Ascorbic Acid Concentration (FRAP) [1, 5] | IC50 (CCD 841 CoTr cells) | IC50 (HT29 cells) | Reduction Value Corresponding to the Trolox Concentration (DPPH) [2, 3] | Reduction Value Corresponding to the Trolox Concentration (DPPH) [2, 4] | Reduction Value Corresponding to the Trolox Concentration (DPPH) [2, 5] | Activity in reducing the free oxygen radical DPPH (in words) ([2]; lower concentrations (<100 μg/mL))
1 | CCCCCc1cc(O)cc(O)c1C/C=C(\C)CCC=C(C)C [abn-CBG, abnormal cannabigerol] | 0.857 ± 0.316 µg/mL | 1.059 ± 0.328 µg/mL | 1.411 µg/mL and 1.411 ± 0.465 µg/mL | 14.1 µg/mL (≈ 44.6 µM) | 19.6 µg/mL (≈ 62 µM) | 0.074 ± 0.056 µg/mL | 0.216 ± 0.133 µg/mL | 0.264 ± 0.198 µg/mL | –
2 | CCCCCc1cc2c3c(c1)OC(C)(C)C1CCC(C)(CC31)O2 (stereo not shown) [CBT, cannabicitran] | 0.353 ± 0.110 µg/mL | 0.353 ± 0.201 µg/mL | 0.504 ± 0.258 µg/mL | 44.5 µg/mL (≈ 141 µM) | 69.1 µg/mL (≈ 220 µM) | 0.280 µg/mL and 0.280 ± 0.190 µg/mL | 0.487 ± 0.104 µg/mL | 0.593 µg/mL and 0.593 ± 0.278 µg/mL | –
3 | CCCCCc1cc(O)c2c(c1)OC(C)(CCC=C(C)C)C=C2 (stereo not shown) [CBC, cannabichromene] | 0.151 ± 0.001 µg/mL | 0.453 ± 0.104 µg/mL | 1.008 ± 0.403 µg/mL | 151 µg/mL (≈ 480 µM) | 176 µg/mL (≈ 560 µM) | 0 µg/mL | 0 µg/mL | 0.487 ± 0.341 µg/mL | did not express any activity
